In US20150005236A1, “USE OF BETA-NERVE GROWTH FACTOR FOR INDUCING OVULATION IN MAMMALS” (INSTITUT NATIONAL DE LA RECHERCHE AGRONOMIQUE, priority 2012, published 2015):
“And” between values parts separate entries of the source, which are not always exact repeats. Equal entries are not always repeated. Marks after values point to notes of the source that are not given here.

Experiments:
female alpacas [1] = assay: LH concentration in peripheral blood of female alpacas (RIA); type: in vivo, alpaca; conditions: for LH concentration in peripheral blood: 12 hours after i.m. injection, versus saline; for peak of LH, time after injection: i.m. injection, peripheral blood
Method: (§1) Female alpacas were cannulated and jugular venous blood samples (5 ml) were collected for detection of luteinising hormone immediately before treatment, every 30 min for 4 h, then every 1 h for 4 h and finally at 12 h post-treatment. Jugular venous blood samples (5 ml) were also collected on day 8 at the time of ultrasonography for detection of plasma progesterone. Samples were placed in heparinised tubes, centrifuged at 2000×g for 10 min, the plasma decanted and stored at −20° C. until analysis.
(§2) Plasma LH concentration were determined using a RIA. Plasma progesterone concentrations were determined using a commercial double antibody RIA kit (Coat-a-Count).
The evolution of the concentration of LH in peripheral blood was assessed for 12 hours after the injections.

female alpacas [2] = assay: Induction of ovulation in alpacas (transrectal ultrasonography, plasma progesterone RIA); type: in vivo, alpaca; conditions: for CL diameter: corpus luteum on day 8 following i.m. treatment; for CL diameter / Progesterone conc.: mean ± sem; for corpus lutea detected, % of alpacas: day 8 following treatment; for corpus lutea detected, % of alpacas / dominant follicle absent, % of female alpacas: n=5/group; for Progesterone conc.: plasma, day 8 following i.m. treatment, animals that did not ovulate excluded; for dominant follicle absent, % of female alpacas: ultrasonography 28-30 h following treatment
Method: The emergence of dominant follicles was synchronised with the 0.8 ml (200 μg) prostaglandin F2α (Estrumate®, Intervet) i.m. followed by 1 ml (4 μg) of Buserelin (Receptal®, Intervet) i.m. 24 h later, then luteolysis was induced 11 days after induced ovulation with 0.8 ml Estrumate®.
To determine the presence of a dominant follicle, females were restrained in sternal recumbency and examined by transrectal ultrasonography using an Aloka SSD-500 scanner with 7.5 MHz linear array transducer (Aloka Co., Japan). The ovaries of […] were scanned. Females with a newly emerged dominant follicle of 6-10 mm in diameter were randomly assigned to receive 1 of 4 treatments: (1) 1 ml 0.9% saline in, (n 5), (2) 1 ml (4 μg) Receptal® (Intervet) i.m (n=5), (3) 2 ml alpaca's seminal plasma i.m. collected as described above for Experiment ˜1 (n=5), (4) 1 mg recombinant active human β-NGF protein (Sino Biological, Japan) Lm. (n=5).
Animals were examined by transrectal ultrasonography 28-30 h following treatments to detect ovulation. Ovulation was defined as the absence of the dominant follicle that was observed during the previous scan at the time of treatment. Ultrasonography was also repeated 8 days following treatment, to confirm ovulation and determine the size of the corpus luteum.
as §1, §2
International, Hemel Hempstead, UK) with post-hoc comparisons using the least significant difference (LSD) test where appropriate. Far all analyses P<0.05 was considered significant.
In this experiment, female alpacas (n 5/group) were administered i.m. with (1) 1 ml 0.9% saline, (2) 1 ml of the GnRH agonist Receptal® (3) 2 ml alpaca seminal plasma, or (4) 1 mg human β-NGF. Ovulation was detected by transrectal ultrasonography […] following treatment and confirmed by plasma progesterone concentrations.

female rabbits = assay: Induction of ovulation in female rabbits; type: in vivo, rabbit; conditions: for Ovulation (%): ovulation frequency, i.m. injection
Method: A herd of 83 female rabbits of proven fertility was used in this experiment.
The female rabbits were synchronized by an injection of eGG 48 hours before insemination. Then they were inseminated with a mixture of semen from several males. The same mixture was used for all females.
The female rabbits were killed 48 hours after insemination. The ovaries were collected to proceed to counting the corpora lutea, pre-ovulatory follicles of diameter higher than 1 mm and atretic follicles, and to identify potential pseudopregnant females. The oviducts were infused in order to count oocytes and embryos and to evaluate the developmental stage of the latter (number of blastomeres of the embryo).
The results were analysed with the software SAS using a fixed-effects variance analysis, taking into account the fixed effect of the treatment (4 levels: GnRH, β-NGF, PS and saline).

[3] = system: glial cells associated with GnRH neurons; assay: Immunohistochemistry of the relations between GnRH neurons and glial cells; type: cell-based, mouse; conditions: 20 min application at 75 nM, then K+ stimulation; not in control conditions
Method: An immunohistochemical approach was used to characterize the cells present in the culture, using anti-GnRH antibody for the GnRH neurons, anti-S100b antibody for the glial cells and anti-P75 antibody (P75 is a NGF-specific receptor). The analysis was carried out by confocale microscopy.
Nasal explants were fixed in 4% formaldehyde [45-60 min, rinsed in PBS (3×10 min)], blocked (1 h, 10% normal goat serum, 0.3% Triton X-100, and 0.1% sodium azide), rinsed in PBS (3×8 min), and incubated overnight in anti-GnRH-1 (1:3000, SW-1). Antibodies were diluted in PBS containing 10% normal goat serum, 0.3% Triton X-100, and 0.1% sodium azide. The next day, the explants were rinsed in PBS (3×8 min), incubated in secondary antibody ant rabbit Alexa 546 (1:500, 1 h; Molecular Probes, Inc., Eugene Oreg.) and rinsed in PBS (4×8 min). Explants incubated with fluorescent dies were mounted with Vector Shield (Vector Laboratories).
The relations between GnRH neurons and glial cells have been analyzed by immunohistochemistry after 20 min of recording in calcic imaging, for the control and after 20 min of application of β-NGF at 75 nM in the culture medium, and after K^+ stimulation. The glial cells retract after K^+ stimulation in the presence of β-NGF, but not in control conditions.

mouse GnRH neurons = assay: Calcium imaging of primary culture of GnRH neurons; type: cell-based
Text: A model of primary culture of GnRH neurons has been developed from explants of olfactory placodes of mouse embryos (Constantin et al., 2009). This model has three stages of in vitro development: from 1 to 3 days, intra-explant migration, corresponding to an in vivo intranasal migration; from 3 to […] days, out-of explant migration, corresponding to an in vivo intracerebral development; from 7 to 15 days, occurrence of the pulsatile secretion, corresponding to neuronal and network maturation.
This experiment was carried out between 7 and 15 days of in vitro development corresponding to a stage of mature GnRH neurons having a pulsatile GnRH secretion.
Embryos were obtained from timed pregnant animals. Nasal pits of embryonic d 11.5 staged Swiss mice were isolated under aseptic conditions and refrigerated for 1 h in Gey's balanced salt solution (Eurobio, Les Ulis, France) enriched with glucose (Sigma-Aldrich Corp., St. Louis, Mo.). Nasal explants were adhered onto coverslips by a chicken plasma (local source)/thrombin (Sigma-Aldrich) clot. […]
These variations were measured by “time lapse” imaging in the primary culture of GnRH neurons. A quantitative analysis was carried out for single neurons but also overall for a group of neurons constituting part of the network. […]
Calcium Green-1 was visualized using an inverted microscope (DM-IRB; Leica. Microsystems GmbH, Wetzlar, Germany), through a ×20 fluorescence objective, and acquired using a cooled intensified charge-coupled device camera (CoolSNAP fx; Rapper Instruments, Photometrics, Tucson, Ariz.). Experiments were piloted by Metafluor (Molecular Devices, Downingtown, Pa.), controlling the shutter and the acquisition (every 20 sec for 3 h), Excitation wavelengths were provided through a medium-width excitation bandpass filter at 465-495 nm, and emission was monitored through a 40-nm bandpass centered on 535 nm. Fluctuations in [Ca2+]i were analyzed a posteriori with Metafluor software. […] Calcium Green-1 fluorescence intensity was plotted and analyzed with Excel (Microsoft Corp., Redmond, Wash.). […]

[4] = 48 hours after insemination, estimated mean values

| Compound | LH concentration in peripheral blood (female alpacas [1]) | peak of LH, time after injection (female alpacas [1]) [h] | CL diameter (female alpacas [2]) | corpus lutea detected, % of alpacas (female alpacas [2]) [%] | Progesterone conc. (female alpacas [2]) | dominant follicle absent, % of female alpacas (female alpacas [2]) [%] | Collected embryos (female rabbits; [4]) | Corpora lutea (number by injected female rabbit) (female rabbits; [4]) | Haemorrhagic follicles (female rabbits; [4]) | Ovulation (%) (female rabbits) | glial cells after K+ stimulation [3] | time to LH surge after treatment (female alpacas [1]; 1 mg i.m.) [h] | percent of synchronization events involving more than 70% of the recorded GnRH neurons (mouse GnRH neurons; 75 nM in the culture medium) | synchronization of calcic events between GnRH neurons (mouse GnRH neurons; 20 min after application at 75 nM) | fold decrease in average time between two calcium events (mouse GnRH neurons; 20 min after application at 75 nM in the culture medium, versus control (about 15 s)) |
| --- | --- | --- | --- | --- | --- | --- | --- | --- | --- | --- | --- | --- | --- | --- | --- |
| CCNC(=O)[C@@H]1CCCN1C(=O)[C@H](CCCNC(=N)N)NC(=O)[C@H](CC(C)C)NC(=O)[C@@H](COC(C)(C)C)NC(=O)[C@H](Cc1ccc(O)cc1)NC(=O)[C@H](CO)NC(=O)[C@H](Cc1c[nH]c2ccccc12)NC(=O)[C@H](Cc1cnc[nH]1)NC(=O)[C@@H]1CCC(=O)N1 [Receptal, Buserelin, reference compound] | significant increase | 3 | 9.3 ± 1.49^a mm | 80 | 4.01 ± 0.897^b ng/ml | 80 | – | – | – | – | – | – | – | – | – |
| GnRH: 0.2 ml of Fertagyl® containing 20 μg of GnRH (Gonadotrophine Releasing Hormone), positive control (QHWSYGLRPG; Gonadoliberin-1; UniProt P01148 24-33, looked up) | – | – | – | – | – | – | 12.09^a | 13.82^a | 1.36^a | 100% and 100^a % | – | – | – | – | – |
| beta-Nerve Growth Factor [β-NGF] | significant increase | 3 | 10.3 ± 1.03^a mm | 80 | 3.28 ± 0.681^b ng/ml | 80 | – | – | – | 25% and 25.0^b % | retract | ≤ 8 | increase | increased | 3 |
